# Calls of active or inactive are those of the source. The calls are words filed in the database; no cut-off is given here.
# Tests used:
# Mus musculus [1] = assay: In vivo inhibition of EGFR signaling in BALB/c nude mouse xenografted with human […] cells assessed as reduction in AKT activation at 25 to 100 mg/kg, po administered once daily for 31 days by Western blot analysis; format: functional, organism-based; details: dose 25-100 mg/kg, time 31.0 day
# PC-9 = assay: Antiproliferative activity against human PC-9 cells harboring EGFR exon 19 deletion mutant assessed as inhibition of cell proliferation incubated for 72 hrs by CCK8 assay; format: functional, cell-based; details: PC-9, 72 h
# [2] = biological target: Protein cereblon/Epidermal growth factor receptor (Homo sapiens, UniProt P00533+Q96SW2, T790M/L858R); assay: PROTAC activity at CRBN/EGFR L858R/T790M mutant in human NCI-H1975 cells assessed as induction of EGFR degradation incubated for 24 hrs by Western blot analysis; format: cell-based
# [3] = Half-life in male Sprague-Dawley rat at 5 mg/kg, iv measured after 24 hrs by LC-MS/MS analysis; format: ADME, organism-based; details: in vivo
# [4] = biological target: Protein cereblon/Epidermal growth factor receptor (Homo sapiens, UniProt P00533+Q96SW2); assay: (§1) PROTAC activity at CRBN/EGFR exon 19 deletion mutant in human PC-9 cells assessed as induction of EGFR degradation incubated for 24 hrs by Western blot analysis; format: cell-based
# [5] = system: Protein cereblon/Epidermal growth factor receptor (Homo sapiens), P00533+Q96SW2 [UNDEFINED MUTATION]; assay: as §1; format: cell-based
# [6] = system: Protein cereblon/Epidermal growth factor receptor (Homo sapiens), P00533+Q96SW2 [L858R,T790M,C797S]; assay: (§2) PROTAC activity at CRBN/EGFR L858R/T790M/C797S mutant in human H1975-TM cells assessed as induction of EGFR degradation by measuring remaining activity at 50 nM preincubated with MG132 for 6 hrs followed by compound addition and measured after 24 hrs by Western blot analysis (reference value: 100%); format: cell-based
# [7] = biological target: Cyclin-dependent kinase 12 (Homo sapiens) (UniProt Q9NYV4); assay: Induction of CDK12 degradation in human H1975-TM cells at 50 nM incubated for 24 hrs; format: cell-based
# Chain of Cyclin-dependent kinase 12 (Homo sapiens) (Q9NYV4 whole entry, looked up): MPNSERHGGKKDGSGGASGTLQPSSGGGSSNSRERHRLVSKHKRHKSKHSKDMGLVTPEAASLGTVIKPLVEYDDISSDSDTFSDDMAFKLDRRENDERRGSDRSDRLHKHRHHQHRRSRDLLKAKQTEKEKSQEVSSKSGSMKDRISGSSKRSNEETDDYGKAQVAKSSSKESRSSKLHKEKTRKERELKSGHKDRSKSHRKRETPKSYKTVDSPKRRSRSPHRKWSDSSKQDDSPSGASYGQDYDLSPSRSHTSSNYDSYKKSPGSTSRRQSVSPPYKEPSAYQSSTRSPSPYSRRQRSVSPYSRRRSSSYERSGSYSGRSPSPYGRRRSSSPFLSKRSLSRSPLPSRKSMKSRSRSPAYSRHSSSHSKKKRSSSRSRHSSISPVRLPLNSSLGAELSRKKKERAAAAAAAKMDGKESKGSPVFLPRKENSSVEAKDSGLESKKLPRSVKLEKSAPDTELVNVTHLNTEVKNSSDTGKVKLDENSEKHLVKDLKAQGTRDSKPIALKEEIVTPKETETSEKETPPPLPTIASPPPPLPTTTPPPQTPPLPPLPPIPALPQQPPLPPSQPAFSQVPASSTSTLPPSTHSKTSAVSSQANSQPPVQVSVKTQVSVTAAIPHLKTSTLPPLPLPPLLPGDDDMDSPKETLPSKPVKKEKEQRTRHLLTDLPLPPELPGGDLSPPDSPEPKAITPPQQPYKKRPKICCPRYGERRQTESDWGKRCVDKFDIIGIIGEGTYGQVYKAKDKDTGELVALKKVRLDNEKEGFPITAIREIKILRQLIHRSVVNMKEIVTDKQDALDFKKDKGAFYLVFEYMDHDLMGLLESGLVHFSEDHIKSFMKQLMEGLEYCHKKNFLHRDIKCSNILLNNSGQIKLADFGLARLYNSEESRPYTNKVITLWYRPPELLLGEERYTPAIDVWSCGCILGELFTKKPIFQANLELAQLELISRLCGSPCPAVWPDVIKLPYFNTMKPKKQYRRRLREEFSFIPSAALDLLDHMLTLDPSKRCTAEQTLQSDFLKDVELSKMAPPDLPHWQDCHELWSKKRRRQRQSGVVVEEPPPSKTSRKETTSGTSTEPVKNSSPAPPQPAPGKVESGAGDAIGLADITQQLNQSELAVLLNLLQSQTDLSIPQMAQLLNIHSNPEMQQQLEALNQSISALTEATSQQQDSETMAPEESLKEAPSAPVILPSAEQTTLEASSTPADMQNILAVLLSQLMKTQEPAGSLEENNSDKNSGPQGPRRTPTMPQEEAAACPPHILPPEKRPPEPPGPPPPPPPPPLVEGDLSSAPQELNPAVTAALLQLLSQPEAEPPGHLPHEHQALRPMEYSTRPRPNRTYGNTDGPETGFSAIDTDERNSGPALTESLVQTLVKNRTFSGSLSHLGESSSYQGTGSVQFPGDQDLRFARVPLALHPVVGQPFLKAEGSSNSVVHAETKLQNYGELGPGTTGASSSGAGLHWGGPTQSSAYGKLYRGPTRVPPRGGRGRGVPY
# [8] = system: Protein cereblon/Epidermal growth factor receptor (Homo sapiens), P00533+Q96SW2 [L858R,T790M,C797S]; assay: PROTAC activity at CRBN/EGFR L858R/T790M/C797S mutant in human H1975-TM cells assessed as induction of EGFR degradation by measuring remaining activity at 50 nM incubated for 24 hrs by Western blot analysis (reference value: 100%); format: cell-based
# [9] = Potency index, ratio of brigatinib IC50 to test compound IC50 for antiproliferative activity against human […] cells harboring EGFR L858R/T790M/C797S mutant assessed as inhibition of cell growth incubated for 72 hrs by CCK-8 assay; format: functional, H1975-TM
# [10] = biological target: Probable U3 small nucleolar RNA-associated protein 11 (Homo sapiens) (UniProt Q9Y3A2); assay: Induction of UTP11 degradation in human H1975-TM cells at 50 nM incubated for 24 hrs; format: cell-based
# Chain of Probable U3 small nucleolar RNA-associated protein 11 (Homo sapiens) (Q9Y3A2 whole entry): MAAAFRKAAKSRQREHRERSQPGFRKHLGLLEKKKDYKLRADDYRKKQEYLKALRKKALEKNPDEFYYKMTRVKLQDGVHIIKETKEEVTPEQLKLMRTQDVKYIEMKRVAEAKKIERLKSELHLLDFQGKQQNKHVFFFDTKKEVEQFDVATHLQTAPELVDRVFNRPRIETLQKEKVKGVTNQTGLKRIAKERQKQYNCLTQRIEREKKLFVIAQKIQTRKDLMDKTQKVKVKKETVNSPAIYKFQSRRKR
# [11] = system: Protein cereblon/Epidermal growth factor receptor (Homo sapiens), P00533+Q96SW2 [L858R,T790M,C797S]; assay: PROTAC activity at CRBN/EGFR L858R/T790M/C797S mutant in human H1975-TM cells assessed as induction of EGFR degradation by measuring remaining activity at 100 nM preincubated for 24 hrs followed by compound washout and measured after 6 hrs by Western blot analysis (reference value: 100%); format: cell-based
# [12] = AUC (0 to infinity) in male Sprague-Dawley rat at 50 mg/kg, po measured after 24 hrs by LC-MS/MS analysis; format: ADME, organism-based; details: in vivo
# [13] = system: Protein cereblon/Epidermal growth factor receptor (Homo sapiens), P00533+Q96SW2 [L858R,T790M,C797S]; assay: PROTAC activity at CRBN/EGFR L858R/T790M/C797S mutant in human H1975-TM cells assessed as induction of EGFR degradation by measuring remaining activity at 11 nM incubated for 24 hrs by Western blot analysis (reference value: 100%); format: cell-based
# [14] = Toxicity in BALB/c nude mouse xenografted with human H1975-TM cells assessed as liver lesions at 25 to 100 mg/kg, po administered once daily for 31 days by Hematoxylin and eosin staining based analysis; format: organism-based; details: in vivo, 744 h, dose 25-100 mg/kg, time 31 day
# [15] = system: Protein cereblon/Epidermal growth factor receptor (Homo sapiens), P00533+Q96SW2 [L858R,T790M,C797S]; assay: PROTAC activity at CRBN/EGFR L858R/T790M/C797S mutant in human H1975-TM cells assessed as induction of EGFR degradation by measuring remaining activity at 100 nM incubated for 24 hrs by Western blot analysis (reference value: 100%); format: cell-based
# [16] = system: Protein cereblon/Epidermal growth factor receptor (Homo sapiens), P00533+Q96SW2 [L858R,T790M,C797S]; assay: PROTAC activity at CRBN/EGFR L858R/T790M/C797S mutant in human H1975-TM cells assessed as induction of EGFR degradation by measuring remaining activity at 33 nM incubated for 24 hrs by Western blot analysis (reference value: 100%); format: cell-based
# [17] = biological target: Cyclin-dependent kinase 16 (Homo sapiens) (UniProt Q00536); assay: Induction of CDK16 degradation in human H1975-TM cells at 50 nM incubated for 24 hrs; format: cell-based
# Chain of Cyclin-dependent kinase 16 (Homo sapiens) (Q00536 whole entry): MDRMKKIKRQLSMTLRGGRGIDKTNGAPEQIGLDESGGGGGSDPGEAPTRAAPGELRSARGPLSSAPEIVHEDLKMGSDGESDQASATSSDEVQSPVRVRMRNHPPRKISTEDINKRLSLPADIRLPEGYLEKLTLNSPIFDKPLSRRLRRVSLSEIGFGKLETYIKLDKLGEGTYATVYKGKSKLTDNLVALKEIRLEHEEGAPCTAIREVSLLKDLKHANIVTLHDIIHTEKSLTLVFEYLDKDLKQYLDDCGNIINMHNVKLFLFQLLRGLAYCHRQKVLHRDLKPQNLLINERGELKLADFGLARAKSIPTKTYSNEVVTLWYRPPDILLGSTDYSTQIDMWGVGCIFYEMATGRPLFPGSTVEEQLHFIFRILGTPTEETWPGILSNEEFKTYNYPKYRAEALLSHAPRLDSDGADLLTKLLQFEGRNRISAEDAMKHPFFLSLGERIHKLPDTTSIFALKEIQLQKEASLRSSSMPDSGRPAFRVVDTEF
# Mus musculus [18] = assay: In vivo PROTAC activity at CRBN/EGFR L858R/T790M/C797S mutant in BALB/c nude mouse xenografted with human […] cells assessed as decrease in EGFR protein level in tumor at 25 to 100 mg/kg, po administered once daily for 31 days by Western blot analysis; format: functional, organism-based; details: dose 25-100 mg/kg, time 31.0 day
# [19] = biological target: Protein cereblon/Epidermal growth factor receptor (Homo sapiens, UniProt P00533+Q96SW2, T790M/C797S/L858R); assay: PROTAC activity at CRBN/EGFR L858R/T790M/C797S mutant in human H1975-TM cells assessed as induction of EGFR degradation incubated for 24 hrs by Western blot analysis; format: cell-based
# Chain of Protein cereblon/Epidermal growth factor receptor (Homo sapiens, UniProt P00533+Q96SW2, T790M/C797S/L858R) (P00533 25-1210 T790M/C797S/L858R limits assumed, stated change not applied): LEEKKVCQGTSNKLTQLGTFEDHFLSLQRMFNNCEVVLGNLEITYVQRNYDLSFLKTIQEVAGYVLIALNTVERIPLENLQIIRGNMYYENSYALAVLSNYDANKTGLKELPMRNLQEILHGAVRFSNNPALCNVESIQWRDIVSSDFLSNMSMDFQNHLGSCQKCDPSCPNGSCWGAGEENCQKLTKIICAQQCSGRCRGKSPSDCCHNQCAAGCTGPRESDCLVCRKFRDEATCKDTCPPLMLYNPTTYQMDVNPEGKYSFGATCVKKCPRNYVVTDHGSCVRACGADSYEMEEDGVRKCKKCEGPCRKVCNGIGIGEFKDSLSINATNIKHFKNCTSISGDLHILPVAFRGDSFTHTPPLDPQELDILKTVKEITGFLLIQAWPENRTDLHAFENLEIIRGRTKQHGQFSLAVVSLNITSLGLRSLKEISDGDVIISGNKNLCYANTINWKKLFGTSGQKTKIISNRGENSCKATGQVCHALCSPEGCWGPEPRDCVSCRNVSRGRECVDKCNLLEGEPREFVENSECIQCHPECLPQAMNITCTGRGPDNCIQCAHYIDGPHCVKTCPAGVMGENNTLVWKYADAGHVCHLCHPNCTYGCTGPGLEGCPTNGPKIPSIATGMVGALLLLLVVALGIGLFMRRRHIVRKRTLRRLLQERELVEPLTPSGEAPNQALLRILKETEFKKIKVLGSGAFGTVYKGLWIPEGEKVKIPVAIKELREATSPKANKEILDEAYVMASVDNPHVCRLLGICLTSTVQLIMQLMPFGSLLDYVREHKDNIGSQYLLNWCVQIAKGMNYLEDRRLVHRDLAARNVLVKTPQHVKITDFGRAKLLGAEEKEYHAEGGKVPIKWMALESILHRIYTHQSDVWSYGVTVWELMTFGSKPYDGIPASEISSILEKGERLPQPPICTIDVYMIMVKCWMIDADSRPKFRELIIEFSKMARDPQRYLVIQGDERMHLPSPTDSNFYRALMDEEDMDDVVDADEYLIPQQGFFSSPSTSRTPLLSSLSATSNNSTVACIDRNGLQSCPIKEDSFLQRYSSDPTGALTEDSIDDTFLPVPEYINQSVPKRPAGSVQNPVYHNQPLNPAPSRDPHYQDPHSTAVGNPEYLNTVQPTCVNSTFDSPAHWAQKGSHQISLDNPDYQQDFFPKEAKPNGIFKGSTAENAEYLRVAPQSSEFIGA
# Chain of Protein cereblon/Epidermal growth factor receptor (Homo sapiens, UniProt P00533+Q96SW2, T790M/C797S/L858R) (Q96SW2 whole entry, stated change not applied): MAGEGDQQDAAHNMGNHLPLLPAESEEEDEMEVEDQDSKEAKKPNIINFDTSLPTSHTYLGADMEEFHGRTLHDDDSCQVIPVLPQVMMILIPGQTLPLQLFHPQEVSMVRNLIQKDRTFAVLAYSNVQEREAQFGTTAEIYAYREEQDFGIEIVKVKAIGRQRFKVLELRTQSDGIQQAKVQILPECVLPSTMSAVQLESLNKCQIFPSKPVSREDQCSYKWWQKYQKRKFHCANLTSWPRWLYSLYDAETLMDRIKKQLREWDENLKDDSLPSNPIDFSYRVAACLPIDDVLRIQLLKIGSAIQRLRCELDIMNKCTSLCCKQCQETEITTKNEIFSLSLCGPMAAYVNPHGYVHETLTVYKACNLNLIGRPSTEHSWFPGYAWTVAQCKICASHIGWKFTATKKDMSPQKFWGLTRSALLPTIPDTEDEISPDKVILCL
# [20] = Toxicity in BALB/c nude mouse xenografted with human H1975-TM cells assessed as lung lesions at 25 to 100 mg/kg, po administered once daily for 31 days by Hematoxylin and eosin staining based analysis; format: organism-based; details: in vivo, 744 h, dose 25-100 mg/kg, time 31 day
# [21] = Toxicity in BALB/c nude mouse xenografted with human H1975-TM cells assessed as effect on body weight at 25 to 100 mg/kg, po administered once daily for 31 days; format: organism-based; details: in vivo, 744 h, dose 25-100 mg/kg, time 31 day
# [22] = system: Protein cereblon/Epidermal growth factor receptor (Homo sapiens), P00533+Q96SW2 [L858R,T790M,C797S]; assay: PROTAC activity at CRBN/EGFR L858R/T790M/C797S mutant in human H1975-TM cells assessed as induction of EGFR degradation by measuring maximal efficacy at 300 nM incubated for 24 hrs by Western blot analysis relative to control; format: cell-based
# [23] = system: Protein cereblon/Epidermal growth factor receptor (Homo sapiens), P00533+Q96SW2 [L858R,T790M,C797S]; assay: PROTAC activity at CRBN/EGFR L858R/T790M/C797S mutant in human H1975-TM cells assessed as induction of EGFR degradation by measuring remaining activity at 3.7 nM incubated for 24 hrs by Western blot analysis (reference value: 100%); format: cell-based
# [24] = Antiproliferative activity against human PC-9-TM cells harboring EGFR exon 19 deletion/T790M/[…] mutant assessed as inhibition of cell proliferation incubated for 72 hrs by CCK8 assay; format: functional, cell-based
# [25] = Cmax in male Sprague-Dawley rat at 5 mg/kg, iv measured after 24 hrs by LC-MS/MS analysis; format: ADME, organism-based; details: in vivo
# [26] = system: Protein cereblon/Epidermal growth factor receptor (Homo sapiens), P00533+Q96SW2 [L858R,T790M,C797S]; assay: as §2, with “MLN4924” for “MG132”; format: cell-based
smiles,measurement,setting,value
CCS(=O)(=O)n1cc(-c2nc(Nc3ccc(N4CCN(CCCCCCC(=O)Nc5cccc6c5CN(C5CCC(=O)NC5=O)C6=O)CC4)cc3)ncc2C(F)(F)F)c2ccccc21 (configuration not stated),inhibition,Mus musculus [1],Active
same,IC50,PC-9,17.5 nM
same,DC50,[2],88.5 nM
same,half-life,[3],38 h
same,DC50,[4],75.4 nM
same,Activity,[5],Dose-Dependent Effect
same,Activity,[6],73.6%
same,Activity,[7],Active
same,Activity,[8],5.8%
same,Ratio IC50,[9],55
same,Activity,[10],Active
same,Activity,[11],36.1%
same,AUC(0-inf),[12],750 ng·h/mL
same,Activity,[13],33.5%
same,Activity,[14],Non-Toxic
same,Activity,[15],2.3%
same,Activity,[16],6.5%
same,Activity,[17],Active
same,Activity,Mus musculus [18],Active
same,DC50,[19],10.2 nM
same,Activity,[20],Non-Toxic
same,Activity,[21],Non-Toxic
same,Emax,[22],> 95%
same,Activity,[23],46.6%
same,IC50,[24],43.5 nM
same,Cmax,[25],4600 ng/mL
same,Activity,[26],51.7%

# From ChEMBL document CHEMBL5543167, “Design, Synthesis, and Biological Evaluation of Novel EGFR PROTACs Targeting C797S Mutation” (J Med Chem, 2024)
